Source: patent US20230263783A1, “CANCER TREATMENT BY COMBINED INHIBITION OF POLO-LIKE KINASE AND MICROTUBULE POLYMERIZATION” (Massachusetts Institute of Technology, priority 2022, published 2023)
Where a SMILES comes first, the peptide text is derived from it. [ ]: non-standard residue; d: D form. The star is where a group is joined. Dolaproine = CO[C@@H]([C@@H]1CCCN1)[C@@H](C)C(=O)O; Dil = CC[C@H](C)[C@H](NC)[C@@H](CC(=O)O)OC; X1 = C[C@@H](N*)[C@@H](O)c1ccccc1; NMeV = CN[C@H](C(=O)O)C(C)C

Legend:
[1] = relative to 2-ME; cited from earlier work
[2] = oral administration; cited from earlier work
[3] = cited from earlier work
[4] = tested on: C4-2 castrate resistant prostate cancer (CRPC) cells; experiment: Relative viability after drug dose matrix (CellTiter-Glo, Bliss Independence) in C4-2 cells; type: cell-based; details: for concentrations at which the more than additive reduction occurs / reduction in cancer cell viability of maytansinoid with Plk1 inhibitor versus each alone: C4-2 cells, with onvansertib; for reduction in cancer cell viability of maytansinoid with Plk1 inhibitor versus each alone: five days, free agents, FIGS. 5A and 5B
Protocol: All cell lines were cultured in a humidified incubator at 37° C. and with 5% CO2, were maintained sub-confluent and used for no more than 20 passages. Media was supplemented with 10% fetal bovine serum (FBS), contained 2 mM glutamine and lacked antibiotics, unless otherwise noted. A549, BT-20, CCD-1112sk, CCD-18co, CFPAC1, HCT 116, HeLa, HT-29, HT55, MCF7, MDA-MB-157, MDA-MB-231, MDA-MB-415, MDA-MB-436, MDA-MB-453, MDA-MB-468, SW48, T98G, U-2 OS, U-87 MG, CAOV3, COV362, and JIMT1 cells were grown in DMEM; 22RV1, AU565, C4-2, CAL33, COL0205,HCC38, HCT-15, KYSE150, LNCaP, LOVO, NCI-H1299, PC-3, ZR-75-1, HCC1419, HCC1569, HCC1954, ZR7530, OVCAR-4, OVCAR8 cells were grown in RPMI 1640; HT1197, HT1376, J82, UMUC3 cells were grown in MEM; OV90, TOV122D, TOV21G cells were grown in 1:1 MCDB105:Medial99 15% FBS; 59M, OAW28, OAW42 cells were grown in Advanced DMEM 0.023 IU/ml insulin; ES2, SKOV3 cells were grown in McCoy's 5A; JHOS2, JHOS4 cells were grown in 1:1 DMEM:HamF12; HUVEC cells were grown in EBM with EGM™-2 BULLETKIT™
For dose response experiments and experiments that examine synergy as a measure of change in relative viability, cells were grown in 384-well plates in triplicate. The following day the cells were subjected to a drug dose matrix that consisted of increasing concentrations of a Plk inhibitor, increasing concentrations of a microtubule polymerization inhibitor, and all pairwise combinations. Drugs were dissolved in DMSO and diluted in the appropriate cell growth media while maintaining a constant final concentration of DMSO. After five days, relative viability was assessed using […]-GLO™ (Promega) Luminescent Cell Viability Assay according to the manufacturer's recommendations. Luminescence was measured using an […]™ M200 Pro plate reader (Tecan Group Ltd.). […] The dose response plots (for example FIG. 1A) show sensitivity to increasing concentrations of a microtubule polymerization inhibitor in the absence or presence of a constant amount of Plk inhibitor. Bars represent the standard error of the mean. The concentration of Plk inhibitor chosen to presented was based on a ˜20-30% reduction of viability when that drug was used at that dose in isolation. The entire amount of greater-than-additive response observed in the dose matrix is the integrated volume between the observed and expected surfaces generated by the response matrix and is also known as Bliss Volume. Bliss Volume synergy metrics are presented in FIG. 3 as the fractional change in volume between the expected and observed response surfaces.

[5] = tested on: panel of >50 other kinases; details: in vitro; cited from earlier work
[6] = tested on: HCT116, NCI-H460, and taxane-resistant CXB1 colon carcinoma xenografts; set-up: dose or concentration left out as unconfirmed; details: cited from earlier work
[7] = tested on: Her2+ trastuzumab-resistant breast cancer; details: via CDK1-dependent phosphorylation and inactivation of Bcl-2/xL; cited from earlier work
[8] = tested on: growth factor activated endothelial cells; details: cited from earlier work
[9] = tested on: Her2+ breast cancer cell lines; experiment: Viability dose matrix in panel of six Her2+ breast cancer cell lines; type: cell-based; details: DM1 with onvansertib, five days, majority of six cell lines, FIGS. 8A-8F
Protocol: (§1) All cell lines were cultured in a humidified incubator at 37° C. and with 5% CO2, were maintained sub-confluent and used for no more than 20 passages. Media was supplemented with 10% fetal bovine serum (FBS), contained 2 mM glutamine and lacked antibiotics, unless otherwise noted. […]
(§2) For dose response experiments and experiments that examine synergy as a measure of change in relative viability, cells were grown in 384-well plates in triplicate. […] After five days, relative viability was assessed using […]-GLO™ (Promega) Luminescent Cell Viability Assay according to the manufacturer's recommendations. Luminescence was measured using an […]™ M200 Pro plate reader (Tecan Group Ltd.). […]

[10] = tested on: ovarian cancer cell lines; experiment: Viability dose matrix in panel of 14 ovarian cancer cell lines; type: cell-based; details: DM4 with onvansertib, five days, FIGS. 6A-6N
Protocol: as §1, §2

[11] = tested on: bladder cancer cell lines; experiment: Viability dose matrix in panel of four bladder cancer cell lines; type: cell-based; details: MMAE with onvansertib, five days, FIGS. 7A-7D
Protocol: as §1, §2

UMUC3 = experiment: Viability dose matrix in UMUC3 bladder cancer cells; type: cell-based; details: MMAE with onvansertib, five days, FIG. 7D
Protocol: as §1, §2

T47D cells [12] = details: read-out: EC50 for caspase activation; cited from earlier work
T47D cells [13] = details: read-out: GI50, cell proliferation; cited from earlier work
[14] = tested on: variety of tumors, including those that express the multidrug resistance (MDR) phenotype; details: read-out: IC50 against a variety of tumors; cited from earlier work

SMILES: COc1cc2c(cc1O)CC[C@@H]1[C@@H]2CC[C@]2(C)C(=O)CC[C@@H]12 [2-methoxyestrone]
- loss in activity in vitro on oxidation of 2-ME to 2-methoxyestrone [1]: 10-to 100 fold

SMILES: COc1ccc(S(=O)(=O)Nc2cccnc2Nc2ccc(O)cc2)cc1 [ABT-751]
- overall mean Tmax [2]: about 2 h
- maximum tolerated dose ([3]; daily schedule, phase I): 250 mg/day

SMILES: CC[C@@H]1C(=O)N(C)c2cnc(Nc3ccc(C(=O)N[C@H]4CC[C@H](N5CCN(CC6CC6)CC5)CC4)cc3OC)nc2N1C(C)C [BI6727]
- effect of the combination of TH588 with a Plk1 inhibitor ([4]; each Plk1 inhibitor in combination with TH588, relative viability): more than additive
- inhibitory activity against a panel of >50 other kinases [5]: no inhibitory activity
- growth of human carcinoma xenografts [6]: significantly inhibits the growth
- effect on T-DM1 resistance [7]: overcomes T-DM1 resistance
- recommended dose for further development ([3]; advanced solid tumors, i.v. once every 3 weeks, based on overall tolerability): 300 mg
- MTD ([3]; advanced solid tumors, i.v. once every 3 weeks): 400 mg
- MTD in combination with afatinib ([3]; advanced solid tumors): 300 mg

SMILES: COc1cc(C(=O)c2c(C)oc3c(O)c(OC)ccc23)cc(OC)c1OC [BNC-105]
- selectivity for growth factor activated endothelial cells compared to quiescent HUVECs [8]: 81 fold

SMILES: COc1cc2cc(c1Cl)N(C)C(=O)C[C@H](OC(=O)[C@H](C)N(C)C(=O)CCS)C1(C)O[C@H]1[C@H](C)[C@@H]1C[C@@](O)(NC(=O)O1)[C@H](OC)/C=C/C=C(\C)C2 (stereo partly shown) [DM1]
- concentrations at which the more than additive reduction occurs [4]: sub-nanomolar
- reduction in cancer cell viability of maytansinoid with Plk1 inhibitor versus each alone [4]: more than the additive reduction
- response to combined Plk1 inhibitor and DM1 [9]: greater than additive response

SMILES: COc1cc2cc(c1Cl)N(C)C(=O)C[C@H](OC(=O)[C@H](C)N(C)C(=O)CCC(C)(C)S)C1(C)O[C@H]1[C@H](C)[C@@H]1C[C@@](O)(NC(=O)O1)[C@H](OC)/C=C/C=C(\C)C2 (stereo partly shown) [DM4]
- concentrations at which the more than additive reduction occurs [4]: sub-nanomolar
- reduction in cancer cell viability of maytansinoid with Plk1 inhibitor versus each alone [4]: more than the additive reduction
- cell lines with greater than additive responses to the drug combination [10]: Ten of fourteen

SMILES: CC[C@H](C)[C@@H]([C@@H](CC(=O)N1CCC[C@H]1[C@H](OC)[C@@H](C)C(=O)N[C@H](C)[C@@H](O)c1ccccc1)OC)N(C)C(=O)[C@@H](NC(=O)[C@@H](NC)C(C)C)C(C)C [MMAE, monomethyl auristatin E] (H-[NMeV]V[Dil][Dolaproine]-X1)
- response to the combination in bladder cancer cell lines [11]: Varying amounts of greater than additive responses
- response to the combination in UMUC3 (UMUC3): very notable response

SMILES: COc1ccc(N(C)c2nc(Cl)nc3ccccc23)cc1 [MPI-0441138]
- EC50 (T47D cells [12]): 2 nM
- GI50 (T47D cells [13]): 2 nM

SMILES: COc1ccc(NS(=O)(=O)c2c(F)c(F)c(F)c(F)c2F)cc1F [T138067]
- IC50 [14]: 11 to 165 nM
